Measured values as given in ChEMBL document CHEMBL1151845, “Terpenoids from Toona ciliata” (2009).
In brackets after ≈: the same amount, converted by molar mass.

Experiments:
[1] = system: Staphylococcus epidermidis; test: Antibacterial activity against Staphylococcus epidermidis ATCC 12228 after 18 hrs; type: functional; conditions: ATCC 12228, 18 h
Trichophyton rubrum = test: Antifungal activity against Trichophyton rubrum after 48 hrs; type: functional

Row | Compound | MIC [1] | MIC (Trichophyton rubrum)
1 | CC1COc2c(N3CCN(C)CC3)c(F)cc3c(=O)c(C(=O)O)cn1c23 (stereo not drawn) [OFLOXACIN] | 0.39 µg/mL (≈ 1.08 µM) | 
2 | C=C[C@@]1(C)CC[C@H]2[C@@](O)(CC[C@@H]3[C@]2(C)CCC[C@]3(C)C(=O)O)C1 [TOONACILIATIN M] |  | 12.5 µg/mL (≈ 39 µM)
3 | C[C@@H]1[C@H](O)[C@@H](C)/C=C/C=C/C=C/C=C/C=C/C=C/C=C/[C@H](O[C@@H]2O[C@H](C)[C@@H](O)[C@H](N)[C@@H]2O)C[C@@H]2O[C@](O)(C[C@@H](O)C[C@@H](O)[C@H](O)CC[C@@H](O)C[C@@H](O)CC(=O)O[C@H]1C)C[C@H](O)[C@H]2C(=O)O [AMPHOTERICIN B] |  | 1.56 µg/mL (≈ 1.69 µM)
